Columns and labels:
[1] = molar heat capacity at constant pressure; conditions: 101.33 kPa, Liquid, DSC
[2] = Crystal; DSC

CCCCCCCCOC(=O)CCC [octyl butanoate]
[1]
Conditions | molar heat capacity at constant pressure [J/K/mol]
227 K | 380.78
229 K | 379.12
231 K | 379.12
233 K | 378.29
235 K | 376.62
237 K | 376.62
239 K | 375.79
241 K | 374.96
243 K | 374.13
245 K | 373.3
247 K | 373.3
249 K | 372.47
251 K | 372.47
253 K | 372.47
255 K | 372.47
257 K | 373.3
259 K | 372.47
261 K | 373.3
263 K | 373.3
265 K | 373.3
267 K | 374.13
269 K | 374.13
271 K | 374.13
273 K | 373.3
275 K | 373.3
277 K | 373.3
279 K | 374.13
281 K | 375.79
283 K | 376.62
285 K | 377.46
287 K | 378.29
289 K | 379.12
291 K | 379.95
293 K | 380.78
295 K | 381.61
297 K | 383.28
298 K | 383.28
299 K | 384.11
301 K | 385.77
303 K | 385.77

Conditions | Triple point temperature [K]
[2] | 218

CCCCCCCCCC(=O)OCC [ethyl decanoate]
[1]
Conditions | molar heat capacity at constant pressure [J/K/mol]
263 K | 375.79
265 K | 375.79
267 K | 375.79
269 K | 375.79
271 K | 375.79
273 K | 374.96
275 K | 374.13
277 K | 374.96
279 K | 376.62
281 K | 378.29
283 K | 379.12
285 K | 379.95
287 K | 379.95
289 K | 380.78
291 K | 380.78
293 K | 381.61
295 K | 382.44
297 K | 383.28
298 K | 383.28
299 K | 384.11
301 K | 385.77
303 K | 385.77

Conditions | Triple point temperature [K]
[2] | 252

CCCCCCCCCCC(=O)OC [methyl undecanoate]
[1]
Conditions | molar heat capacity at constant pressure [J/K/mol]
273 K | 381.61
275 K | 381.61
277 K | 384.11
279 K | 380.78
281 K | 381.61
283 K | 382.44
285 K | 382.44
287 K | 385.77
289 K | 384.11
291 K | 384.11
293 K | 384.94
295 K | 384.94
297 K | 385.77
298 K | 389.1
299 K | 385.77
301 K | 386.6
303 K | 389.93

Conditions | Triple point temperature [K]
[2] | 262

CCCCCCOC(=O)CCCCC [hexanoic acid, hexyl ester]
[1]
Conditions | molar heat capacity at constant pressure [J/K/mol]
227 K | 390.76
229 K | 387.43
231 K | 385.77
233 K | 384.94
235 K | 384.11
237 K | 384.11
239 K | 383.28
241 K | 383.28
243 K | 383.28
245 K | 383.28
247 K | 383.28
249 K | 383.28
251 K | 383.28
253 K | 383.28
255 K | 384.11
257 K | 384.94
259 K | 384.94
261 K | 384.94
263 K | 385.77
265 K | 385.77
267 K | 385.77
269 K | 385.77
271 K | 385.77
273 K | 384.94
275 K | 384.94
277 K | 385.77
279 K | 386.6
281 K | 387.43
283 K | 389.1
285 K | 389.93
287 K | 390.76
289 K | 392.42
291 K | 392.42
293 K | 393.25
295 K | 394.08
297 K | 394.92
298 K | 394.92
299 K | 394.92
301 K | 396.58
303 K | 397.41

Conditions | Triple point temperature [K]
[2] | 217

CCCCCCCC(=O)OCCCC [butyl octanoate]
[1]
Conditions | molar heat capacity at constant pressure [J/K/mol]
241 K | 387.43
243 K | 387.43
245 K | 386.6
247 K | 386.6
249 K | 386.6
251 K | 386.6
253 K | 386.6
255 K | 387.43
257 K | 388.26
259 K | 387.43
261 K | 387.43
263 K | 386.6
265 K | 386.6
267 K | 386.6
269 K | 386.6
271 K | 386.6
273 K | 386.6
275 K | 386.6
277 K | 386.6
279 K | 388.26
281 K | 389.1
283 K | 390.76
285 K | 391.59
287 K | 391.59
289 K | 393.25
291 K | 394.08
293 K | 394.92
295 K | 395.75
297 K | 396.58
298 K | 397.41
299 K | 397.41
301 K | 398.24
303 K | 399.07

Conditions | Triple point temperature [K]
[2] | 230
